# Biological target: bacterial β-glucuronidase (E. coli GUS) (Escherichia coli, UniProt P05804)
# Assay: GUS enzyme activity assay with purified enzyme
# Type: biochemical
# Chain of bacterial β-glucuronidase (E. coli GUS) (P05804 whole entry): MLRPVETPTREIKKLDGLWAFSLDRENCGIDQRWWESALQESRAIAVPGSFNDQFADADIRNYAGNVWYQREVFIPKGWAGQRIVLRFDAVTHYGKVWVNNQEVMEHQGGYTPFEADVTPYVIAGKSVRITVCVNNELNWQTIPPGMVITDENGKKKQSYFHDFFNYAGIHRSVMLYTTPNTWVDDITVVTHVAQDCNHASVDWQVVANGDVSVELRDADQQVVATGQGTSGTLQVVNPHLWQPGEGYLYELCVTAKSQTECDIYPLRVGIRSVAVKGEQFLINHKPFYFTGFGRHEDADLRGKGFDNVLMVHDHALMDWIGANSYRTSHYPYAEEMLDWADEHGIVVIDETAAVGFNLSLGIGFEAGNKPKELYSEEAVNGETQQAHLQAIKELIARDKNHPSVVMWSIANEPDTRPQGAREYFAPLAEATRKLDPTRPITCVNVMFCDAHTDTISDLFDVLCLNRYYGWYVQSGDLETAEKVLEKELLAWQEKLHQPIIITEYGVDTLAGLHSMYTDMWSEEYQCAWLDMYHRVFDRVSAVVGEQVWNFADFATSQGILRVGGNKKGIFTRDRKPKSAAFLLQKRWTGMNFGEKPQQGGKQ
structure (smiles),measurement,value
"Oc1ccc2c(c1)Oc1ccc(Cl)cc1C(N1CCNCC1)=N2 [7-OHAMOX, 7-hydroxyamoxapine]",IC50,981 ± 183 nM
"Oc1ccc2c(c1)N=C(N1CCNCC1)c1cc(Cl)ccc1O2 [8-OHAMOX, 8-hydroxyamoxapine]",IC50,1990 nM

# Source: paper PMC4079752 (Clinical cancer research : an official journal of the …, 2014)
